Measurements from article PMC6938345, “Inhibition of complement activation, myeloperoxidase, NET formation and oxidant activity by PIC1 peptide variants” (PLoS ONE, 2019).

Legend:
[1] = Peptide solubility in water
Method: (PA) (Table 1) were synthesized by New England Peptide (Gardner, MA) to >90% purity. Sarcosine variants and PEG were dissolved in water and the pH was adjusted with NaOH. PA was dissolved in DMSO and then brought up to the final concentration with water resulting in 30% DMSO and pH adjusted. Antibody sensitized sheep erythrocytes (EA), purified C1q and factor B-depleted human sera were purchased from Complement Technology (Tyler, TX). Purified myeloperoxidase was purchased from Lee BioSolutions (Maryland Heights, MO) and tetramethylbenzidine (TMB) and PicoGreen were purchased from Thermo Fisher (Waltham MA).
(PA), peptide derivatives were synthesized with sarcosine residues substituted at all 15 positions, included a peptide in which the vicinal cysteines at positions 9 and 10 (C9,C10) were replaced with a single sarcosine residue (Table 1).

[2] = tested on: classical complement pathway (factor B-depleted human sera + antibody-sensitized sheep erythrocytes); assay: Classical pathway CH50-type hemolytic assay in factor B-depleted sera; format: cell-based; conditions: peptides 0.4 mM, P < 0.001
Method: For hemolytic complement assays, human red blood cells (RBCs) from type AB donors were purified, washed and standardized to 1 × 10^9 cells/ml, as previously described. Human sera from type O donors at a 20% final concentration was combined with 1 mM PIC1 or sarcosine variant peptides and the volume was brought up to 0.15 ml with GVBS^++ and 0.5 ml RBCs. For factor B-depleted sera hemolytic assays, a final of 0.005% factor B depleted sera was incubated with 1 mM PIC1 or sarcosine variant peptides with 0.1 ml antibody-sensitized sheep red blood cells (EA) in a final volume of 0.75 ml GVBS^++. The samples were incubated for 1 hour at 37 °C and then 1.0 ml of GVBS^-—was added to the factor B-depleted samples to stop the reaction. The samples were spun at 3,000 rpm for 5 minutes and the supernatant was collected and read at 412 nm. Values are represented as a percent of the positive control, which consists of human O sera and AB red blood cells in GVBS^++ buffer. […]
Fig 1 Sarcosine variant inhibition of complement activation in hemolytic assays and C1q binding. […] D) Half-maximal binding concentrations were calculated for each peptide’s binding curve.

MPO heme ring = molecular target: T1, MPO heme ring (Homo sapiens, UniProt P05164); assay: MPO heme ring oxidative degradation; format: biochemical; conditions: peptides 3.0 mM, H2O2, absorbance 300-550 nm
T1 construct: purchased Lee BioSolutions (Maryland Heights, MO)
T1 sequence (P05164 49-745): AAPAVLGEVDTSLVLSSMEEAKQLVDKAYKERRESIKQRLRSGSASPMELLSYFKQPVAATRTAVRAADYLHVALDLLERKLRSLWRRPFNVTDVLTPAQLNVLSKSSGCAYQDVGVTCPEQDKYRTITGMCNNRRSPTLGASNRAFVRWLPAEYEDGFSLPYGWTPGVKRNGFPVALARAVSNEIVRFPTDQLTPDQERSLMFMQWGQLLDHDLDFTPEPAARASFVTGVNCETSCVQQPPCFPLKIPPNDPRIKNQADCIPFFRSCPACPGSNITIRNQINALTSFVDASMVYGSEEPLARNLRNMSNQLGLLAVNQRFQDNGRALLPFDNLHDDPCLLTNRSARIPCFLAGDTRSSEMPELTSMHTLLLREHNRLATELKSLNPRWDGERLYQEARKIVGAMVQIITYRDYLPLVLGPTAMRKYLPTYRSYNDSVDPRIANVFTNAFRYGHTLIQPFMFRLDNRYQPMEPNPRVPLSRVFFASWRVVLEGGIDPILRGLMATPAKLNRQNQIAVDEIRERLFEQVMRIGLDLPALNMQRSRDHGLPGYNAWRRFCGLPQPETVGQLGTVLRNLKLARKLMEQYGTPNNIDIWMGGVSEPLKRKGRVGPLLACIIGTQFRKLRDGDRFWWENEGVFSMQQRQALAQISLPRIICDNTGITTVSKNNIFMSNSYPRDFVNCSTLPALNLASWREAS
Method: In a 96 well plate, 0.025 ml of 1.7 mg/ml MPO was combined with 0.00125 ml of 0.5% H2O2 and 3 mM PIC1 or sarcosine variant peptides in a total volume of 0.125 ml PBS and left to incubate at room temperature for 2 minutes. Using a 96 well plate reader, the wells were scanned for absorbance from 300–550 nm to generate curves reflecting the iron state in the MPO heme ring, as previously reported.
We then evaluated the ability of the variants to prevent degradation of the heme ring in the MPO molecule. […] This can be evaluated via spectrometric measurements of absorption of wavelengths from 300–550 nm. Absorption measurements were made over this spectrum for all variants (Fig 3A–3H). […] The heme ring preservation for these two variants was greater than that for the parent compound, PA-dPEG24.
Fig 3 Sarcosine variant protection of MPO heme ring from oxidative degradation. Absorbance spectra for the heme ring is shown in the absence of hydrogen peroxide (MPO) in red, in the presence of hydrogen peroxide (MPO+H2O2) in black, in the presence of peptide in blue, and in the presence of hydrogen peroxide and peptide together in green. […] B-H) Peptides A2 – C9,10 are denoted in the legends. Peptides were tested at a concentration of 3.0 mM.

[3] = Total Antioxidant Capacity (TAC) assay
Method: The TAC (Total Antioxidant Capacity) Assay (Cell Biolabs, Inc, San Diego, CA) was used to measure the antioxidant capacity of the sarcosine variants based on the reduction of copper (II) to copper (I). The kit protocol was performed as recommended.
Antioxidant activity is measured in copper reducing equivalents (CRE). Peptides were tested over a range of concentrations from 0.03–0.25 mM then compared to the standard. Data are the means of n = 3 independent experiments + SEM.

In the case of `CC[C@H](C)[C@H](N)C(=O)N[C@@H](C)C(=O)N[C@@H](CC(C)C)C(=O)N[C@H](C(=O)N[C@@H](CC(C)C)C(=O)N[C@@H](CCC(=O)O)C(=O)N1CCC[C@H]1C(=O)N(C)CC(=O)N[C@@H](CS)C(=O)N[C@@H](CS)C(=O)N[C@@H](CCC(N)=O)C(=O)N[C@@H](CCC(=O)O)C(=O)N[C@@H](CCCNC(=N)N)C(=O)N[C@@H](C)C(=O)N[C@@H](C)C(=O)O)[C@@H](C)CC` [I8], the “solubility in water (in words)” value [1] is reported as “soluble in water”, the “inhibition of hemolysis more than PA-dPEG24” value [2] is reported as 75% and the “protection of MPO heme ring from degradation (in words)” value (MPO heme ring) is reported as “near perfect preservation”. The “TAC assay, antioxidant activity” value ([3]; Avg of n = 3) was 1239.37 copper reducing equivalents (CRE) and the “antioxidant capacity (in words)” value ([3]; TAC assay) was “approaching that of PA-dPEG24”.
